Test results published in ChEMBL document CHEMBL5233249, “Recent advancements in the development of heterocyclic anti-inflammatory agents” (Eur J Med Chem, 2020).
Values after ≈ are worked out from the molar mass of the structure shown. Each block holds one molecule with its values, some of them ahead of it.

Experiments:
Rattus norvegicus [1] = experiment: Anti-inflammatory activity in Carageenan-induced foot paw edema in Swiss albino rat assessed as reduction in volume of paw edema measured after 1 hr relative to control; format: functional; design: scale not given: the % may be the effect or the level left
Rattus norvegicus [2] = experiment: Anti-inflammatory activity in Carageenan-induced foot paw edema in Swiss albino rat assessed as reduction in volume of paw edema measured after 2 hr relative to control; format: functional; design: scale not given: the % may be the effect or the level left
Rattus norvegicus [3] = experiment: Anti-inflammatory activity in Carageenan-induced foot paw edema in Swiss albino rat assessed as reduction in volume of paw edema measured after 4 hr relative to control; format: functional; design: scale not given: the % may be the effect or the level left
Rattus norvegicus [4] = experiment: Anti-inflammatory activity in Carageenan-induced foot paw edema in Swiss albino rat assessed as reduction in volume of paw edema measured after 6 hr relative to control; format: functional; design: scale not given: the % may be the effect or the level left
Rattus norvegicus [5] = experiment: Anti-inflammatory activity against formalin-induced foot paw edema in PO dosed rat at 10 mg/kg assessed as inhibition of edema measured after 4 hr relative to control; format: functional
[6] = Anti-inflammatory activity assessed using bovine serum albumin/egg albumin proteins assessed as protein denaturation measured at 95 degC for 20 mins by measuring turbidity by UV-Vis spectrophotometer; format: functional
Erythrocyte [7] = experiment: Anti-inflammatory activity in rat red blood cells assessed as stabilization of cell membrane at 200 microg/ml relative to control; format: functional; conditions: dose 200 µg/ml
Erythrocyte [8] = experiment: Anti-inflammatory activity in rat red blood cells assessed as stabilization of cell membrane at 500 microg/ml relative to control; format: functional; conditions: dose 500 µg/ml
RAW264.7 [9] = experiment: Anti-inflammatory activity in mouse RAW264.7 cells assessed as inhibition of LPS-induced NO production in macrophages; format: functional, cell-based
[10] = target: T1, Polyunsaturated fatty acid 5-lipoxygenase (Homo sapiens, UniProt P09917); experiment: Inhibition of 5-LOX (unknown origin) after 5 mins by colorimetric method
T1 sequence (P09917 whole entry): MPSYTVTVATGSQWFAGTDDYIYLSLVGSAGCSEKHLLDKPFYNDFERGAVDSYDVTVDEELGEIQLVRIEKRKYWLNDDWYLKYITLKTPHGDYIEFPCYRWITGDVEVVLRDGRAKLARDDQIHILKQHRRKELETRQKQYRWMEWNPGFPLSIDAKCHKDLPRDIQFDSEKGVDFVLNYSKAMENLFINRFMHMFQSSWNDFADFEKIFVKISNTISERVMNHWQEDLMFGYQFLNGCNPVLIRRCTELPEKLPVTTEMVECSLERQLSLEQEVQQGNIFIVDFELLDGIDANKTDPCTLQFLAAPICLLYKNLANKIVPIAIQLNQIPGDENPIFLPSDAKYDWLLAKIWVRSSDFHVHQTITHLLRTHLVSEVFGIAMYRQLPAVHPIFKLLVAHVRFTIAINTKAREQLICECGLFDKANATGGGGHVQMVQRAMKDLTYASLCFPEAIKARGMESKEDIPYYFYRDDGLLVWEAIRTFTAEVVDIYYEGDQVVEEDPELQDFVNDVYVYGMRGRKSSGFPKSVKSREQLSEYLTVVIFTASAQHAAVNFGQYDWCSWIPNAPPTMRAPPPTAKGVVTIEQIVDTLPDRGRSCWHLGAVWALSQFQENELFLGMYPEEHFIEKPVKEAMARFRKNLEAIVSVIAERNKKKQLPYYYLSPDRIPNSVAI

Mus musculus [11] = experiment: Anti-inflammatory activity against Carrageenan-induced paw edema in mouse model assessed as inhibition of edema at 100 mg/kg measured after 3 hrs relative to control; format: functional; design: scale not given: the % may be the effect or the level left
[12] = Antioxidant activity assessed as DPPH radical scavenging activity incubated for 20 mins by spectrophotometric analysis; format: functional
Mus musculus [13] = experiment: Anti-inflammatory activity in Carrageenan-induced paw edema mouse model assessed as inhibition of granuloma measured after 24 hrs relative to control; format: functional
Rattus norvegicus [14] = experiment: Anti-inflammatory activity against formalin-induced foot paw edema in Wistar rat at 5 mg/kg, po assessed as inhibition of edema measured after 4 hr relative to control; format: functional
Rattus norvegicus [15] = experiment: Anti-inflammatory activity against Carrageenan-induced paw edema in PO dosed Wistar albino rat assessed as inhibition of edema measured after 3 hr relative to control; format: functional; design: scale not given: the % may be the effect or the level left
Rattus norvegicus [16] = experiment: Anti-inflammatory activity against Carrageenan-induced paw edema in PO dosed Wistar albino rat assessed as inhibition of edema measured after 1 hr relative to control; format: functional; design: scale not given: the % may be the effect or the level left
Rattus norvegicus [17] = experiment: Anti-inflammatory activity against Carrageenan-induced paw edema in PO dosed Wistar albino rat assessed as inhibition of edema measured after 2 hr relative to control; format: functional; design: scale not given: the % may be the effect or the level left
Rattus norvegicus [18] = experiment: Anti-inflammatory activity against Carrageenan-induced paw edema in PO dosed Wistar albino rat assessed as inhibition of edema measured after 4 hr relative to control; format: functional; design: scale not given: the % may be the effect or the level left
Erythrocyte [19] = experiment: Anti-inflammatory activity in human red blood cells assessed as stabilization of cell membrane; format: functional, cell-based
Rattus norvegicus [20] = experiment: Anti-inflammatory activity against Carrageenan-induced paw edema in PO dosed Wistar albino rat assessed as reduction in hind paw edema volume at 20 mg/kg relative to control; format: functional; design: scale not given: the % may be the effect or the level left
Rattus norvegicus [21] = experiment: Anti-inflammatory activity in Wistar rat assessed as reduced hind paw edema at 25 mg/kg relative to control; format: functional; design: scale not given: the % may be the effect or the level left
RAW264.7 [22] = experiment: Anti-inflammatory activity in mouse RAW264.7 cells assessed as inhibition of LPS-induced NO production measured after 24 hrs; format: functional, cell-based; conditions: RAW264.7, 24 h
[23] = Selectivity index, ratio of IC50 for ovine COX1 to IC50 for recombinant human COX2
Rattus norvegicus [24] = experiment: Anti-ulcerative activity in aspirin induced Wistar rat ulcer model assessed as inhibition of ulcer index at 20 mg/kg,po; format: functional
Rattus norvegicus [25] = experiment: Anti-ulcerative activity in Carrageenan-induced Sprague-Dawley rat ulcer model assessed as inhibition of ulcer index at 10 mg/kg,po; format: functional

SMILES: CCCC1Nc2cc(C(=O)N/N=C/c3ccc(Cl)c(Cl)c3O)cc(C)c2N1 (configuration not stated)
Activity (Rattus norvegicus [1]): 43.3%
Activity (Rattus norvegicus [2]): 57.62%
Activity (Rattus norvegicus [3]): 79.51%
Activity (Rattus norvegicus [4]): 83.5%

SMILES: Nc1cc(-c2ccccc2)nn1-c1nc2c(cnn2-c2ccccc2)c(=O)n1-c1ccccc1
inhibition in vivo at 10 mg/kg (Rattus norvegicus [5]): 50%

IC50 [6]: 60.56 µg/mL (≈ 118 µM)
SMILES: COc1ccc(-c2nn(-c3ccccc3)cc2CCC(=O)OCc2cn(-c3cccc(Cl)c3)nn2)cc1
Activity (Erythrocyte [7]): 70%
Activity (Erythrocyte [8]): 94%

IC50 [6]: 57.24 µg/mL (≈ 113 µM)
SMILES: Cc1ccc(-c2nn(-c3ccccc3)cc2CCC(=O)OCc2cn(-c3ccc([N+](=O)[O-])cc3)nn2)cc1
Activity (Erythrocyte [7]): 74%
Activity (Erythrocyte [8]): 97%

IC50 (RAW264.7 [9]): 3260 nM
SMILES: C[C@]12CCC(=O)C=C1CC[C@@H]1[C@@H]2[C@@H](O)C[C@@]2(C)[C@H]1CC[C@]2(O)C(=O)CO [HYDROCORTISONE]

IC50 [10]: 900 nM
SMILES: O=C(O)c1ccc(CSc2nc3cc(F)c(Oc4ccc(F)cc4)cc3[nH]2)cc1
Activity (Mus musculus [11]): 66.13%

SMILES: O=C1O[C@H]([C@@H](O)CO)C(O)=C1O
Activity [12]: 81.3%

SMILES: O=C1CSC(=S)C1NC1=NC2C(C=NN2c2ccccc2)C(=O)N1c1ccccc1 (configuration not stated)
inhibition (INH) (Mus musculus [13]): 45.6%
inhibition in vivo at 5 mg/kg (Rattus norvegicus [14]): 85.7%

SMILES: N#CC(C#N)/N=N/c1ccc2c(c1)CCC2
Activity (Rattus norvegicus [15]): 64.83%

SMILES: CC(C)(CO)NC(=O)CCCC(=O)/C=C/c1cn(-c2ccccc2)nc1-c1ccccc1
Activity (Rattus norvegicus [16]): 40%
Activity (Rattus norvegicus [17]): 25.56%
Activity (Rattus norvegicus [18]): 30.95%

EC50 (Erythrocyte [19]): 11 µg/mL (≈ 32 µM)
SMILES: Oc1ccccc1-c1cc(-c2cc3cc4ccccc4nc3s2)[nH]n1

SMILES: COc1ccc(N/N=C2\C(=O)N(CNc3c(C)cccc3C)N=C2Nc2ccccc2F)cc1
Activity (Rattus norvegicus [20]): 51%

SMILES: NS(=O)(=O)c1ccc(-n2nc(C(=O)NNC(=O)c3cccc(Cl)c3)cc2-c2ccccc2)cc1
Activity (Rattus norvegicus [21]): >60%

EC50 (Erythrocyte [19]): 14 µg/mL (≈ 37.1 µM)
SMILES: Oc1ccc(Cl)cc1-c1cc(-c2cc3cc4ccccc4nc3s2)[nH]n1

IC50 (RAW264.7 [22]): 620 nM
SMILES: C[C@@H]1C[C@H]2[C@@H]3CCC4=CC(=O)C=C[C@]4(C)[C@@]3(F)[C@@H](O)C[C@]2(C)[C@@]1(O)C(=O)CO [DEXAMETHASONE]

SMILES: N#CC(/N=N/c1ccc2c(c1)CCC2)=C(\N)N1CCCCC1
Activity (Rattus norvegicus [15]): 63.95%

Selectivity Index [23]: 10
SMILES: NS(=O)(=O)c1ccc(-n2nc(C(=O)NNC(=O)c3cccc(C(F)(F)F)c3)cc2-c2ccccc2)cc1
Activity (Rattus norvegicus [21]): 62.48%

SMILES: CC(C)Cc1ccc(C(C)C(=O)O)cc1 (configuration not stated) [IBUPROFEN]
UI (Rattus norvegicus [24]): 20.25
UI (Rattus norvegicus [25]): 20.25
Activity (Mus musculus [11]): 70.65%
